Here are results for one molecule from patent publication US7629156B2, “Ethanol production in fermentation of mixed sugars containing xylose” (E.I. du Pont de Nemours and Company, priority 2006, dated 2009).

What all share (format): cell-based, Zymomonas mobilis
Assay [1] relates to ZW658 strain. Description: Flask fermentation of ZW658 on glucose and xylose with sorbitol 10-200 mM. As to the method:
(§1) Approximately 1 ml of well mixed sample was obtained from flask or fermentor. First the sample absorbance was measured directly with a spectrophotometer (Amersham Biosciences Ultrospec 3300pro, GE Healthcare, Piscataway, N.J., USA). If the reading was lower than 0.6 unit, no dilution was needed. If the reading was higher than 0.6 unit, the sample was diluted with culture medium until the actual reading was in the range of 0.1 to 0.6 unit. The original OD was calculated from the dilution ratio and the actual reading.
(§2) The analysis of sugars, acetate, ethanol, and other by-products was done with an Agilent 1100 series HPLC and Agilent ChemStation software for LC 3D. The column was BioRad Aminex HPX-87H(HPLC Organic Analysis Column 125-0140) with BioRad Micro-Guard Cartridge Cation-H (125-0129). The operating conditions were:
(§3) Glycerol stock of seed frozen at −80° C. was thawed, then inoculated into sterile culture tubes with mixture of 60 g/L glucose, 20 g/L xylose, 10 g/L yeast extract (YE), 10 g/L KH2PO4, 2 g/L (NH4)2SO4, and 1 g/L MgSO4. Initial pH was adjusted to 5.5 with 4 N KOH. This revival culture was grown statically overnight at 37° C. It was transferred into shake flasks with 75 g/L glucose, 25 g/L xylose, 10 g/L yeast extract (YE), 10 g/L KH2PO4, 2 g/L (NH4)2SO4, and 1 g/L MgSO4. Initial pH was adjusted to 5.5 with 4 N KOH. Growth was monitored by measuring OD600. When the OD reached approximately 5, a certain volume of the seed was withdrawn into a sterile syringe for inoculation.
In five sterilized 125 ml Erlenmeyer culture flasks (Cat. No. 30180-036, VWR International, USA), 10 ml of ZW658 strain seed culture at Optical Density of approximately 5 (measured at 600 nm; OD600) was inoculated into each flask with 100 ml of aqueous solution containing 110 g/L glucose, 90 g/L xylose, 10 g/L yeast extract (YE), 2 g/L KH2PO4, 4 g/L KHCO3, and various concentrations of sorbitol (10, 20, 50, 100, and 200 mM). Initial pH was adjusted to 5.5 with 4 NH3PO4 solution. Mixing speed was set at 150 rpm. Fermentation was conducted at 33° C. and pH was not controlled. Samples were taken periodically. Samples were filtered through 0.22 micron filters, and the filtrates were analyzed by HPLC as described in General Methods for ethanol. Samples were diluted with medium (as described in General Methods) and the OD600 was measured to monitor cell growth. […] After 24 hours, the OD600 were 7.74, 7.86, 8.04, 7.82, and 7.12, respectively, for sorbitol concentrations of 10, 20, 50, 100, and 200 mM. After 48 hours, the OD600 were 8.30, 8.26, 8.84, 8.12, and 7.72, respectively, for sorbitol concentrations of 10, 20, 50, 100, and 200 mM. […] Ethanol production was slightly slower with 100 or 200 mM sorbitol than with 10, 20, or 50 mM sorbitol, although all cultures reached about the same final amount of ethanol produced. […] Thus 10 mM sorbitol is adequate to provide maximal ethanol production under these conditions.

Assay [2] concerns ZW658 strain. Description: Flask growth of ZW658 on glucose and xylose with sorbitol 0.5-10 mM. As to conditions: after 14.25 hours, total sugar about 160 g/L. As to the method: as §1, §3
In five sterilized 125 ml Erlenmeyer culture flasks (Cat. No. 30180-036, VWR International, USA), 10 ml of ZW658 strain seed culture at OD600 of approximately 5 (measured at 600 nm) was inoculated into each flask with 100 ml of aqueous solution containing 100 g/L glucose, 80 g/L xylose, 10 g/L yeast extract (YE), 10 g/L KH2PO4, 2 g/L (NH4)2SO4, 1 g/L MgSO4.7H2O, and various concentrations of sorbitol (0, 0.5, 1, 2, and 10 mM). After inoculation, the total sugar concentration was about 160 g/L due to dilution by the seed culture. Initial pH was adjusted to 5.5 with 4 N KOH solution. Mixing speed was set at 150 rpm. Fermentation was conducted at 33° C. and pH was not controlled. Samples were taken periodically. Samples were diluted with medium (as described in General Methods) and the OD600 was measured to monitor cell growth. […] Cultures with higher concentration of sorbitol, in this range, grew faster and better. After 14.25 hours, the OD600 were 4.19, 7.10, 8.08, 8.62, and 10.1, respectively, for sorbitol concentrations of 0, 0.5, 1, 2, and 10 mM.

The subject of assay [3] is ZW658 strain. Description: Flask fermentation of ZW658 on glucose and xylose with acetate and various polyols. As to conditions: 10 mM polyol, 3 g/L acetate. As to the method: as §1, §2, §3
In five sterilized 125 ml Erlenmeyer culture flasks (Cat. No. 30180-036, VWR International, USA), 10 ml of ZW658 strain seed culture at OD600 of approximately 5 was inoculated into each flask with 100 ml of aqueous solution containing 100 g/L glucose, 80 g/L xylose, 3 g/L acetate, 10 g/L yeast extract (YE), 2 g/L KH2PO4, 1 g/L MgSO4.7H2O, and 4 g/L KHCO3, and 10 mM of the following polyols: erythritol, sorbitol, mannitol, maltitol, or lactitol; or 5 mM sorbitol plus 5 mM maltitol, or 5 mM sorbitol plus 5 mM lactitol. After inoculation, the total sugar concentration was about 160 g/L due to dilution by the seed culture. Initial pH was adjusted to 5.5 with 4 N H3PO4 solution. Mixing speed was set at 150 rpm. Fermentation was conducted at 33° C. and pH was not controlled. Samples were taken periodically. Samples were filtered through 0.22 micron filters, and the filtrates were analyzed by HPLC as described in General Methods for compounds including glucose, xylose, ethanol, and acetate. Samples were diluted with medium (as described in General Methods) and the OD600 was measured to monitor cell growth.

For the molecule `OC[C@@H](O)[C@@H](O)[C@H](O)[C@@H](O)CO` [sorbitol], the xylitol result with ZW658 strain [1] (10-200 mM sorbitol, any of the samples) is “No xylitol was detected”. Also, the OD600 with ZW658 strain [1] (after 24 hours, 10 mM sorbitol, 110 g/L glucose, 90 g/L xylose) came out at 7.74; in the assay with ZW658 strain [1] (after 24 hours, 20 mM sorbitol), 7.86; with ZW658 strain [1] (after 24 hours, 50 mM sorbitol), 8.04; with ZW658 strain [1] (after 24 hours, 100 mM sorbitol) it was 7.82; in the assay on ZW658 strain [1] (after 24 hours, 200 mM sorbitol), 7.12; with ZW658 strain [1] (after 48 hours, 10 mM sorbitol), 8.30. Moreover, the OD600 stood at 8.26 in the assay on ZW658 strain [1] (after 48 hours, 20 mM sorbitol); 8.84 in the assay with ZW658 strain [1] (after 48 hours, 50 mM sorbitol); 8.12 with ZW658 strain [1] (after 48 hours, 100 mM sorbitol); 7.72 with ZW658 strain [1] (after 48 hours, 200 mM sorbitol); 7.10 in the assay on ZW658 strain [2] (0.5 mM sorbitol); 8.08 in the assay on ZW658 strain [2] (1 mM sorbitol). Also, the OD600 is recorded as 8.62 with ZW658 strain [2] (2 mM sorbitol); 10.1 with ZW658 strain [2] (10 mM sorbitol); 7.88 in the assay with ZW658 strain [3] (after 32 hours, total sugar about 160 g/L). Besides, the ethanol production result in the assay on ZW658 strain [3] is reported as “ethanol production was also better”. Also, in the assay on ZW658 strain [3], the xylose utilization result is given as “More xylose was utilized”.
